Values quoted from earlier work, collected in patent US6749867B2, “Delivery system for omeprazole and its salts” (priority 2000, dated 2004).
Where two headings read alike, the source gives them in different places.

Columns and labels:
[1] = in vivo
[2] = not given; remark: listed apart in the source

For COc1ccc2[nH]c([S+]([O-])Cc3ncc(C)c(OC)c3C)nc2c1 (stereo not drawn) [omeprazole, Omeprazole], the plasma half-life [1] is listed as “about 60 minutes”, the half-life of degradation (acidic aqueous solutions, pH values below 4) is listed as “less than 10 minutes” and the half-life of degradation (pH 6.5) is listed as “about 18 hours”. The half-life of degradation (pH 11) was “several hundred”, the “solubility in alkaline solution” value ([2]; alkaline solution, as the negatively charged ion) was “very soluble” and the solubility in water ([2]; water) was “very slightly soluble”.
